Reference: patent US5091528A, “6- or 7- (2-imino-2-imidazolidine)-1,4-benzoxazines as α adrenergic agents” (Allergan, Inc., priority 1990, dated 1992)
Where a name gives a salt, the structure may show the parent alone.

Columns and labels:
[1] = test system: alpha2 -Adrenoreceptor; conditions: described by Chapleo et al.; cited from earlier work
[2] = test system: alpha-2 adrenergic receptor; assay: Rabbit Vas Deferens Assay (alpha-2 adrenergic receptor activity); set-up: species or system New Zealand white rabbit; conditions: for Comment (α1/α2 selectivity): Rabbit Vas Deferens table
Description: (§1) The test procedure for alpha-2 adrenergic receptor activity of the compounds of the present invention is the rabbit vas deferens assay which is described as follows:
(§2) New Zealand white rabbits (2-3 kg) were killed by CO2 inhalation and the vasa deferentia removed. The prostatic ends of the vasa deferentia (2-3 cm lengths) were mounted between platinum ring electrodes in 9 ml organ baths and bathed in Krebs bicarbonate solution of the following composition (millimolar): NaCl 118.0; KCl 4.7; CaCl2 2.5; MgSO4 1.2; KH2 PO4 1.2; glucose 11.0; NaHCO3 25.0; which solution was maintained at 35 degrees C and bubbled with 95% O2 and 5% CO2. The initial tension of the vas deferens was 0.5 g. The tissues were left to equilibrate for 30 minutes before stimulation was started. […] Cumulative concentration-response curves were obtained for the compounds being tested with a 4 minute contact time at each concentration. The reduction in response height was measured and expressed as a percentage of the height of the response before the addition of the compounds. Concentration response curves for each of the compounds were plotted. The effective concentration required for a 50% reduction in response height, expressed as EC50 were obtained from these curves.

[3] = target: T1, alpha-2 adrenergic receptor (Oryctolagus cuniculus, UniProt Q5ZQK3); assay: as above; set-up: species or system New Zealand white rabbit; conditions: field-stimulated rabbit vas deferens, 35 degrees C, 4 minute contact time; read-out: EC50 (effective concentration required for a 50% reduction in response height)
T1 construct: The prostatic ends of the vasa deferentia (2-3 cm lengths) were mounted between platinum ring electrodes; from tissue; host or cells: prostatic ends of vasa deferentia of New Zealand white rabbits
T1 sequence (Q5ZQK3 1-451): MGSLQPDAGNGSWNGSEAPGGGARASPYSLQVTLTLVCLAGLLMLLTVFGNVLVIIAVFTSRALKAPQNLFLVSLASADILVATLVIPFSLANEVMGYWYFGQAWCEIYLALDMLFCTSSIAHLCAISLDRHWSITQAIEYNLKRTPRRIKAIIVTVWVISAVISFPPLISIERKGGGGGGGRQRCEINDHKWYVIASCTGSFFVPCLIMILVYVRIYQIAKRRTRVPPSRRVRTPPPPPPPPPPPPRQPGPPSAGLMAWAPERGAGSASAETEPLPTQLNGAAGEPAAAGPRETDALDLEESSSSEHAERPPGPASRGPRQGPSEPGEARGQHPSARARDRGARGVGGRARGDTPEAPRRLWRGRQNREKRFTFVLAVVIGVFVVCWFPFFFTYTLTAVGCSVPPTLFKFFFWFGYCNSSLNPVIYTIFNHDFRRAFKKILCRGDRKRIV
Description: as §1, §2

[4] = test system: Alpha 1 adrenergic receptor; assay: Rabbit Aorta: Alpha 1 adrenergic receptor assay; conditions: rabbit thoracic aorta rings, 37° C
Text: The vasoconstrictive properties of the compounds of the present invention, i.e. their ability to reduce or control intraocular bleeding, are established by the rabbit aorta: alpha 1 adrenergic receptors in vivo assay procedure, which is recognized in the art to be indicative of the in vivo activity of the tested compounds as vaso-constrictors or as anti intraocular bleeding agents.
Thoracic aorta specimens were obtained form albino rabbits that were killed by CO2 inhalation. The aorta was cut into 3 mm rings. Tissues were placed in Krebs-Hensleit solution of the following composition (millimolar): NaCl 119; KCl 4.7; MgSO4 1.5, KH2 PO4 1.2; CaCl2 2.5; NaHCO3 25 and glucose 11.0. The solution also contained cocaine (0.1 millimolar) to block neuronal uptake and EDTA (30 micromolar) and ascorbic acid (5 micromolar) to prevent oxidation of the compound being tested. Tissues were hung in 10 ml organ baths and tension was measured via Grass FT03 force-displacement transducers. Resting tension was 2 g for the aorta. The solution was gassed with 95% O2 and 5% CO2 and maintained at 37° C. Tissues were allowed to equilibrate for 2 hours before stimulation and the cumulative addition of the compound to be tested (aryl oxazoline) was started. Tissue stimulation was performed using a square wave stimulator (WPI A310) Accupulser with A385 stimulus) at 0.1 Hz, 2 ms pulse width at 90 mA.

[5] = test system: intraocular pressure; assay: intraocular pressure (anti-glaucoma) assay, topical unilateral administration; type: in vivo, monkey or New Zealand white rabbit
Description: The anti-glaucoma activity (ability to maintain or reduce intraocular pressure) of the compounds of the present invention is established by the following assay pressure. This assay procedure is generally recognized in the art to provide pertinent information with respect to the anti-glaucomaactivity of the formulations assayed. Thus, each of the compounds of the invention to be tested was dissolved in distilled water at a concentration of 0.3% (W/V). Each of these solutions was administered topically and unilaterally to one eye of a drugnaive, unanesthetized monkey or New Zealand white rabbit in a single 50 micro liter drop. The contralateral eye received an equal volume of saline prior to determining the intraocular pressure after the mixture was administered. Also, approximately 10 micro liters of 0.5% (W/V) proparacaine (topical anesthetic) was applied to the corneas of each of the animals before determining intraocular pressure. As a control test, six (6) other drug-naive, unanesthetized animals were treated and tested as described above except that no compound of the invention was included in the solutions administered to the eyes.
The intraocular pressure was determined in both eyes of each animal both before and after the solutions were administered. Such intraocular pressure determinations were made in the conventional manner using conventional equipment.

[6] = storage stability of solid; type: physicochemical; conditions: stored in the dark at 0° C
[7] = Contralateral (Untreated) Eye, 0.3% (W/V) to the other eye
[8] = Ipsilateral (Treated) Eye, 0.3% (W/V), single 50 micro liter drop

| SMILES | Comment (α1/α2 selectivity) [2] | EC50 [3] [nM] | EC50 [4] [nM] | other results |
| --- | --- | --- | --- | --- |
| O=C1COc2cc(N=C3NCCN3)ccc2N1 [Example 3, 7-2(2-imino-2-imidazolidine)-3-oxo-3,4-dihydro-(2H)-1,4-benzoxazine] | – | – | – | alpha-2 agonist activity [1]: partial alpha-2 agonists |
| O=C1COc2c(cc(Br)c(N=C3NCCN3)c2Br)N1 [Example 5, 6,8-dibromo-7-(2-imino-2-imidazolidine)-3-oxo-3,4-dihydro-(2H)-1,4-benzoxazine] | Non-Selective | 0.59 ± 0.14 | 3.41 ± 0.5 | Comment (vasoconstrictor activity) ([2]; printed "Potent- Vasoconstrictor" on two lines): Vasoconstrictor |
| O=C1COc2ccc(N=C3NCCN3)cc2N1 [Example 12, 6-(2-imino-2-imidazlidine)-3-oxo-3,4-dihydro-(2H)-1,4-benzoxazine] | – | – | – | alpha-2 agonist activity [1]: partial alpha-2 agonists |
| O=C1COc2cc(Br)c(N=C3NCCN3)c(Br)c2N1 [Example 14, 5,7-dibromo-6-(2-imino-2-imidazolidine)-3-oxo-3,4-dihydro-2H-1,4-benzoxazin] | α2 Selective | 48.5 ± 20.6 | > 100000 | – |
| CN1C(=O)COc2cc(Br)c(N=C3NCCN3)cc21 [Example 31, 7-bromo-4-methyl-6-(2-imino-imidazolidine)-3-oxo-3,4-dihydro-(2H)-1,4-benzoxazine] | α2 Selective | 41.5 ± 24.4 | 2740 ± 1430 | Duration of IOP decrease [5, 7]: 1 h; Maximum Difference in Intraocular Pressure After Solution Administration, % Decrease in IOP from Control [5, 7]: 6.8 ± 1.8%; Duration of IOP decrease [5, 8]: 1 to 6 h; Maximum Difference in Intraocular Pressure After Solution Administration, % Decrease in IOP from Control [5, 8]: 14 ± 2.5% |
| CCc1cc2c(cc1N=C1NCCN1)NC(=O)CO2 [Example 50, 7-Ethyl-6-(2-imino-2-imidazolidine)-3-oxo-3,4-dihydro-(2H)-1,4-benzoxazine] | α2 Selective | 8.92 ± 3.11 | 940 ± 18.5 | – |
| CCCc1c(N=C2NCCN2)ccc2c1NC(=O)CO2 [Example 56, 5-Propyl-6-(2-imino-2-imidazolidine)-3-oxo-3,4-dihydro-(2H)-1,4-benzoxazine] | α2 Selective | 18.1 ± 1.21 | 1120 ± 94.1 | – |
| O=S(=O)(O)C1=NCCN1 [Imidazoline-2-sulfonic acid] | – | – | – | stability of solid on storage [6]: at least 6 months |

Now from value to molecule, other results behind:

| Comment (α1/α2 selectivity) [2] | EC50 [3] [nM] | EC50 [4] [nM] | SMILES | other results |
| --- | --- | --- | --- | --- |
| α2 Selective | 167 ± 56.1 | 1120 ± 457 | O=C1COc2cc(N=C3NCCN3)c(Br)cc2N1 [Example 4, 6-Bromo-7-(2-imino-2-imidazolidine)-3-oxo-3,4-dihydro-(2H)-1,4-benzoxazine,hydrobromide] | – |
| α1 Selective | > 10000 | 39 ± 6.36 | Brc1cc2c(cc1N=C1NCCN1)OCCN2 [Example 7, 6-bromo-7-(2-imino-2-imidazolidine)-3,4-dihydro-(2H)-1,4-benzoxazine] | – |
| α2 Selective | 105 ± 35.5 | 1430 ± 891 | CN1C(=O)COc2cc(N=C3NCCN3)c(Br)cc21 [Example 22, 4-methyl-6-bromo-7-(2-imino-imidazolidine)-3-oxo-3,4-dihydro-2H-1,4-benzoxazinehydrobromide] | Duration of IOP decrease [5, 7]: 1 h; Maximum Difference in Intraocular Pressure After Solution Administration, % Decrease in IOP from Control [5, 7]: 5.7 ± 2.0%; Duration of IOP decrease [5, 8]: 1 to 2 h; Maximum Difference in Intraocular Pressure After Solution Administration, % Decrease in IOP from Control [5, 8]: 11.5 ± 2.7% |
| α2 Selective | 74.6 ± 43.6 | 5690 ± 956 | Cc1cc2c(cc1N=C1NCCN1)NC(=O)CO2 [Example 39, 7-methyl-6(2-imino-2-imidazolidine)-3-oxo-3,4-dihydro-(2H)-1,4-benzoxazine] | – |
